Where two headings read alike, the source gives them in different places.
Tests used:
[1] = tested on: T1, EnOMT1; experiment: methyltransferase assay, RP-HPLC of pinostrobin formed, Michaelis-Menten fit; assay type: biochemical, Eucalyptus nitida; conditions: crude recombinant E. coli extract, 50 mM potassium phosphate pH 7, 30 °C, read-out: apparent Km
T1 construct: gene OMT1; full-length, 349 residues; E. coli BL21 (DE3)

[2] = tested on: T2, EmOMT1; experiment: methyltransferase assay, RP-HPLC, extrapolated non-linear regression; assay type: biochemical, Eucalyptus mitchelliana; conditions: crude recombinant E. coli extract, SAM, 50 mM potassium phosphate pH 7, 30 °C, 16 h incubation needed for product, read-out: apparent Km
T2 construct: gene OMT1; full-length

[3] = tested on: T3, EcOMT1; experiment: methyltransferase assay, RP-HPLC of pinostrobin formed, Michaelis-Menten fit; assay type: biochemical, Eucalyptus croajingolensis; conditions: crude recombinant E. coli extract; SAM; 50 mM potassium phosphate pH 7, 30 °C; read-out: apparent Km app
T3 construct: gene OMT1; full-length

| Compound | Km ([1]; 100 μM SAM, kcat from His-affinity purified enzyme) [µM] | Km [2] [µM] | Km [3] [µM] | Km ([1]; 50 μM pinocembrin, methyl donor) [µM] |
| --- | --- | --- | --- | --- |
| O=C1C[C@@H](c2ccccc2)Oc2cc(O)cc(O)c21 [pinocembrin] | 2.05 ± 0.16 | > 800 | 2.55 ± 0.38 |  |
| C[S+](CC[C@H](N)C(=O)O)C[C@H]1O[C@@H](n2cnc3c(N)ncnc32)[C@H](O)[C@@H]1O (stereo partly shown) [S-adenosylmethionine] |  |  |  | 4.99 ± 0.29 |

— PMC8954846, “Molecular Characterisation of Flavanone O-methylation in Eucalyptus” (International Journal of Molecular Sciences, 2022)
